Literature values, collected in US10638758B2, “Heterocycle-containing amino acid compound and use thereof” (AICHI STEEL CORPORATION, priority 2015, dated 2020).

Test system: rice
Conditions: alkaline conditions; Non-Patent Document 2

For `O=C(O)[C@@H](NCC[C@H](O)C(=O)O)[C@@H](O)CN1CC[C@H]1C(=O)O` [mugineic acid], the “effect on the growth of graminaceous plants” value is listed as “dramatic effect”.
